Measured values published in patent US20260151389A1, “Use of Tetramethylpyrazine Nitrone Derivatives In The Treatment of Ischemic Stroke” (GUANGZHOU MAGPIE PHARMACEUTICALS CO., L.T.D., priority 2021, published 2026).

System: patients with acute ischemic stroke
Assay: multicenter, randomized, double-blind, parallel clinical trial in acute ischemic stroke
Type: in vivo, human
Details: for increase in percentage of patients with mRS 0-1 compared to the saline group: non-thrombolytic group, TBN 1400 mg iv twice a day for 7 days
Description: The present invention adopts a multicenter, randomized, double-blind, parallel trial clinical research design. The patients with acute ischemic stroke included in the clinical trial-center as subjects (all signed informed consent forms) were divided into non-thrombolytic group and thrombolytic group. The non-thrombolytic group consists of the saline group and the TBN group. The thrombolytic group consists of the t-PA group and the combination group of TBN+t-PA.
Subjects of the tests: Patients diagnosed with acute ischemic stroke were selected by clinical trial centers based on the diagnostic criteria of “Chinese Guidelines for the Diagnosis and Treatment of Acute Ischemic Stroke (2018)”.
Administration method: TBN (1400 mg) is dissolved in a sodium chloride injection bag (specification: 100 mL) and administered intravenously for 30 minutes. Dose of t-PA: 0.9 mg/Kg/dose; usage: added to physiological saline, 10% of the dose is administered via injected intravenous injection immediately within 1-2 minutes, and the remaining 90% is administered via intravenous drop infusion within 60 minutes. t-PA is administered only once on the first day of acute ischemic stroke. The medication schedule of TBN: D1-D7 administered twice a day, with an interval of 12 hours, for 7 consecutive days.

Cc1nc(C)c(/C=[N+](\[O-])C(C)(C)C)nc1C [TBN, cis-2-methyl-N-[(3,5,6-trimethylpyrazin-2-)methylene]2-propamine oxide]
safety and tolerability (clinical trial patients): good safety and tolerability | increase in percentage of patients with mRS 0-1 compared to the saline group (30th day): 6.6 percentage points | increase in percentage of patients with mRS 0-1 compared to the saline group (90th day): 3.3 percentage points
